4 molecules from patent US7387779B2, “Anti-angiogenic proteins and fragments and methods of use thereof” (Beth Israel Deaconess Medical Center, priority 1998, dated 2008) can be followed below.

Several values for one entry are separate records, joined by “and”; a condition that tells them apart may be missing. Equal values may be shown once. Read-outs that look alike come from different tables or passages of the source.

The subject of data set [1] is PC3 tumor xenografts. Put plainly: PC3 human prostate tumor xenograft (Example 58). Type of data set: in vivo, nude NCRNU mice. As for the experimental part: Male nude NCRNU mice, 5-6 weeks old, weighing approximately 25 grams, 6 were implanted with 2×10^6 PC3 cells into the dorsal subcutis. When the tumors were 60 mm^3, the animals were pair-matched into treatment and control groups. Each group contained 6-7 tumored mice, each of which was ear-tagged and followed individually throughout the experiment. Initial doses of peptide or vehicle control were given on the day of pair-matching (Day 0), and were administered via intraperitoneal (i.p.) injection at doses indicated. Mice were weighed weekly, and tumor measurements were taken by calipers weekly. These tumor measurements were converted to tumor volume by a well-known formula, (V=W^2×L/2), and mean tumor volumes were plotted against time. Mice were euthenized at the end of the treatment period. Upon termination, the mice were weighed, sacrificed and their tumors were excised. The mean tumor weight per group was calculated, and the value of mean treated tumor volume or volume ratio/mean control tumor volume or volume ratio×100 was subtracted from 100% to give the tumor growth inhibition (TG1) for each group. All groups received injections I.P. daily, except for two T8-treated groups, which were treated twice per week and once a week, respectively.
(In general: A xenograft is tissue or cells of one species grown in another, often human tumour cells in immunodeficient mice.)

The subject of data set [2] is MDAMB-435 tumor xenografts. Put plainly: MDAMB-435 human breast orthotopic xenograft (Example 57). Format: in vivo, nude NCRNU mice. Conditions: four weeks; for Final Tumor Weight (V/Vo) ± SEM: control 3.77 ± 0.38. As for the experimental part:
Female nude NCRNU mice, 5-6 weeks old, weighing approximately 20 grams, were implanted with 2×10^6 MDAMB-435 cells into the subaxillary mammary fat pad. When the tumors were 100 mm^3, the animals were pair-matched into treatment and control groups. Each group contained 6-7 tumored mice, each of which was ear-tagged and followed individually throughout the experiment. Initial doses of T8 or TP3 peptide or vehicle control were given on the day of pair-matching (Day 0), and were administered via intraperitoneal (i.p.) injection at doses indicated. Mice were weighed twice weekly, and tumor measurements were taken by calipers twice weekly, starting on Day 1. These tumor measurements were converted to tumor volume by a well-known formula, (V=W^2×L/2) and mean tumor volumes as well as volume ratios (V/Vo) were plotted against time. Mice were euthanized at the end of the treatment period. Upon termination, the mice were weighed, sacrificed and their tumors were excised. The mean tumor weight per group was calculated, and the mean value (treated tumor ratio/mean control tumor ratio× 100) was subtracted from 100% to give the tumor growth inhibition (TGI) for each group.
Treatment was initiated when tumor volumes reached […]. All groups received injections I.P. daily, except for one T8-treated group, which was treated twice per week.

In data set [3] the test system is MDAMB-435 tumor xenografts. Put plainly: MDAMB-435 human breast tumor xenograft (Example 59). Conditions: 5.0 mg/kg i.p. daily, 3 weeks. Format: in vivo, nude NCRNU mice. From the text: (§1) For tests involving the MDAMB-435 model, female nude NCRNU mice, 5-6 weeks old, weighing approximately 20 grams, were implanted with 2×10^6 MDAMB-435 cells into the subaxillary mammary fat pad. For tests involving the PC3 model, male nude NCRNU mice, 5-6 weeks old, weighing approximately 25 g were implanted with 2×10^6 PC3 cells into the dorsal subcutis. When the tumors were 100 mm^3 (for the MDAMB-435 model), or 60 mm^3 (for the PC3 model), the animals were pair-matched into treatment and control groups.
(§2) Each group contained 6-7 tumored mice, each of which was ear-tagged and followed individually throughout the experiment. Initial doses of peptide or vehicle control were given on the day of pair-matching (Day 0), and were administered daily via intraperitoneal (i.p.) injection at doses indicated. Mice were weighed weekly, and tumor measurements were taken by calipers weekly, starting on Day 0. These tumor measurements were converted to tumor volume by a well-known formula, (V=W^2×L/2) and mean tumor volumes were plotted against time. Mice were euthenized at the end of the treatment period. Upon termination, the mice were weighed, sacrificed and their tumors were excised. The mean tumor weight per group was calculated, and the mean treated tumor volume/control tumor volume×100 was subtracted from 100% to give the tumor growth inhibition (TGI) for each group.

The subject of data set [4] is PC3 tumor xenografts. Put plainly: PC3 human prostate tumor xenograft (Example 59). Format: in vivo, nude NCRNU mice. As to conditions: 5.0 mg/kg i.p. daily, 3 weeks.
Source text: as §1, §2

Data set [5] has as its system MDAMB-435 tumor xenografts. Format: in vivo. As to conditions: for Final Tumor Weight ± SEM: control 333.3 ± 39.61. As for the experimental part:
Female nude NCRNU mice, 5-6 weeks old, weighing approximately 20 grams, were implanted with 2×10^6 MDAMB-435 cells in the subaxillary mammary fat pad. When the tumors were 100 mm^3, the animals were pair-matched into treatment and control groups. Each group contained 7 tumored mice, each of which was ear-tagged and followed individually throughout the experiment. Initial doses of T8 peptide or vehicle control were given on the day of pair-matching (Day 0), and were administered via intraperitoneal (i.p.) injection at 1 mg and 2.5 mg per kg animal weight. Mice were weighed twice weekly, and tumor measurements were taken by calipers twice weekly, starting on Day 1. These tumor measurements were converted to tumor volume by the well-known formula V=W2×L/2, and mean tumor volumes were plotted against time. Mice were euthenized at the end of the treatment period. Upon termination, the mice were weighed, sacrificed and their tumors were excised. The mean tumor weight per group was calculated, and the value of (mean treated tumor weight/mean control tumor weight×100) was subtracted from 100% to give the tumor growth inhibition (TGI) for each group.
Treatment was initiated when tumor volumes reached 100 mm^3. All groups received injections bid, i.p., for 26 days.

The test system of data set [6] is mouse aortic endothelial cells (MAE). The data set is described as follows: Endothelial tube formation on Matrigel. Type of data set: cell-based. Conditions: endothelial tube assay (FIGS. 30 and 31). As to the method: To measure inhibition of endothelial tube formation, 320 μl of Matrigel (Collaborative Biomedical Products, Bedford, Mass., USA) was added to each well of a 24-well plate and allowed to polymerize (Grant, D. S. et al., 1994, Pathol. Res. Pract. 190:854-63). A suspension of 25,000 mouse aortic endothelial cells (MAE) in EGM-2 medium (Clonetics Corp., San Diego, Calif., USA) without antibiotic was passed into each well coated with Matrigel. The cells were treated with increasing concentrations of either Arresten, BSA, sterile PBS or the 7S domain. All assays were performed in triplicate. Cells were incubated for 24-48 hours at 37° C. and viewed using a CK2 Olympus microscope (3.3 ocular, 10× objective). The cells were then photographed using 400 DK coated TMAX film (Kodak). Cells were stained with diff-quik fixative (Sigma Chemical Company, St. Louis, Mo., USA) and photographed again. Ten fields were viewed, and the tubes counted and averaged.
Matrigel (Collaborative Biomedical Products, Bedford, Mass., USA) was added ([…]) to each well of a 24 well plate and allowed to polymerize (Grant, D. S. et al., supra). A suspension of 25,000 mouse aortic endothelial cells (MAE) in EGM-2 (Clonetics Corporation, San Diego, Calif., USA) medium without antibiotic was passed into each well coated with Matrigel. The cells were treated with either Canstatin, BSA, sterile PBS or α5-NC1 domain in increasing concentrations. All assays were performed in triplicate. Cells were incubated for 24-48 hours at 37° C. and viewed using a CK2 Olympus microscope (3.3 ocular, 10× objective). The cells were then photographed using 400 DK coated TMAX film (Kodak). Cells were stained with diff-quik fixative (Sigma Chemical Co., St. Louis, Mo., USA) and photographed again (Grant, D. S. et al., 1994, Pathol. Res. Pract. 190:854-63). Ten fields were viewed, tubes counted and averaged.
Matrigel (Collaborative Biomedical Prods., Bedford, Mass., USA) was added ([…]) to each well of a 24-well plate and allowed to polymerize (Grant, D. S. et al., 1994, Pathol. Res. Pract. 190:854-63). A suspension of 25,000 MAE cells in EGM-2 medium (Clonetics Corporation, San Diego, Calif., USA) without antibiotic was passed into each well coated with Matrigel (Grant, D. S. et al., 1994, Pathol. Res. Pract. 190:854-63). The cells were treated with either Tumstatin, BSA or 7S domain in increasing concentrations. Control cells were incubated with sterile PBS. All assays were performed in triplicate. Cells were incubated for 24-48 hours at 37° C. and viewed using a CK2 Olympus microscope (magnification of 3.3× ocular, 10× objective). The cells were then photographed using 400 DK coated TMAX film (Kodak). Cells were stained with diff-quik fixative (Sigma Chemical Co.) and photographed again (Grant, D. S. et al., 1994, Pathol. Res. Pract. 190:854-63). Ten fields were viewed, and the number of tubes were counted by two investigators unaware of the experimental protocols, and averaged.
Fragments and mutants of Arresten and Canstatin were also made according to the Pseudomonas elastase digestions of Mariyama et al. (1992, J. Biol. Chem. 267:1253-58). The digest was resolved by gel filtration HPLC and the resultant fragments were analyzed by SDS-PAGE and evaluated in the endothelial tube assay described above. These fragments included a 12 kDa fragment of Arresten, an 8 kDa fragment of Arresten, and a 10 kDa fragment of Canstatin. In addition, two fragments of Tumstatin (‘333’ and ‘334’) were generated by PCR cloning.

[7] abbreviates: 5.0 mg/kg i.p. daily, 3 weeks, T7 vehicle 5.626 ± 0.38, T8 vehicle 6.278 ± 1.483.
[8] abbreviates: 5.0 mg/kg, printed (2x/week) again, once a week in the text.

KQRFTTMPFLFCNVNDVCNFASRNDYS [T8]: the “% Tumor growth inhibition” value in the data set with PC3 tumor xenografts [1] (5.0 mg/kg (2x/week)) amounted to 8.1%; in the data set with PC3 tumor xenografts [1] (5.0 mg/kg i.p. daily, 3 weeks) it was 45%; with PC3 tumor xenografts [1] (setting [8]), 39.5%; in data set [2] (5.0 mg/kg I.P. daily) it was 31%; in data set [3], 50.5%; in the data set with PC3 tumor xenografts [4] it was 35.4%. Further, the “% Tumor growth inhibition” value in data set [5] (2.5 mg/kg, bid i.p., 26 days) is ~49% and 47.91%. In addition, the “Final Tumor Weight (V/Vo) ± SEM” value worked out at 5.770 ± 1.156 in the data set on PC3 tumor xenografts [1] (5.0 mg/kg (2x/week)); 3.455 ± 1.228 in the data set with PC3 tumor xenografts [1] (setting [7]); 3.800 ± 1.602 in the data set on PC3 tumor xenografts [1] (setting [8]); 2.21 ± 0.31 in data set [2] (5.0 mg/kg (2x/week)); 2.60 ± 0.38 in data set [2] (5.0 mg/kg I.P. daily); 231.9 ± 27.03 in data set [3] (control 468.5 ± 48.06). Further, the “Final Tumor Weight (V/Vo) ± SEM” value in the data set with PC3 tumor xenografts [4] (control 1070.0 ± 132.5) is 691.4 ± 90.52. Also, the “Final Tumor Weight ± SEM” value was determined as 173.6 ± 23.73 in data set [5] (2.5 mg/kg, bid i.p., 26 days) and 237.8 ± 31.88 in data set [5] (Dosage 1.9 mg/kg as printed (1 mg/kg in the text), bid i.p., 26 days). Further, the “toxicity as judged by weight change” value in data set [5] (mouse, in vivo) is reported as “no toxicity”.
Turning to “KLFCNVNCVCNFASRNDYS (TP3 (amino acids 76-94 of SEQ ID NO10; lysine has been substituted for the phenylalanine residue at position 76 of the full-length Tumstatin molecule, and cysteine has been substituted for the aspartic acid at position 83))”, the “% Tumor growth inhibition” value in the data set with PC3 tumor xenografts [1] (5.0 mg/kg i.p. daily, 3 weeks) is reported as 53.2%; in data set [2] (5.0 mg/kg I.P. daily), 50.0%. For the same molecule, the “Final Tumor Weight (V/Vo) ± SEM” value in the data set with PC3 tumor xenografts [1] (setting [7]) was 2.940 ± 0.636; in data set [2] (1.0 mg/kg I.P. daily), 2.62 ± 0.45; in data set [2] (5.0 mg/kg I.P. daily), 1.88 ± 0.29.

B1: Tumstatin 333: residues 1 to 124 of full-length Tumstatin (SEQ ID NO:20) (protein)
chain: GLKGKRGDSGSPATWTTRGFVFTRHSQTTAIPSCPEGTVPLYSGFSFLFVQGNQRAHGQDLGTLGSCLQRFTTMPFLFCNVNDVCNFASRNDYSYWLSTPALMPMNMAPITGRALEPYISRCTV
modifications: Tumstatin 333 (amino acids 1-124 of3 SEQ ID NO10)
In the case of B1, the ED50 in data set [6] was 0.075 µg/mL.

B2: Tumstatin 334: residues 125 to 244 of full-length Tumstatin (SEQ ID NO:21) (protein)
chain: CEGPAIAIAVHSQTTDIPPCPHGWISLWKGFSFIMFTSAGSEGTGQALASPGSCLEEFRASPFLECHGRGTCNYYSNSYSFWLASLNPERMFRKPIPSTVKAGELEKIISRCQVCMKKRH
modifications: Tumstatin 334 (amino acids 125-244 of SEQ ID NO10)
The molecule B2 returned an ED50 in data set [6] of 0.02 µg/mL.
